Assay in all cases: biochemical
What all share (assay type): biochemical

The target of assay [1] is 363 human kinases (including Aurora A/B/C) (Homo sapiens, UniProt Q9BXA6). To be noted: SSTK/TSSK6; for remaining activity at 0.5 µM / remaining activity at 0.1 µM: read-out: % Enzyme Activity (relative to DMSO controls); for remaining activity at 0.1 µM: 100 nM.
Description: (§1) However, the Aurora A/B selectivity ratios derived from our in vitro and in vivo data can be compared to prioritize inhibitors.
The target of assay [2] is 363 human kinases (including Aurora A/B/C) (Homo sapiens, UniProt P43250). To be noted: GRK6; for remaining activity at 0.5 µM / remaining activity at 0.1 µM: read-out: % Enzyme Activity (relative to DMSO controls); for remaining activity at 0.1 µM: 100 nM.
363 human kinases (including Aurora A/B/C) (Homo sapiens, UniProt P43250), sequence (P43250 whole entry): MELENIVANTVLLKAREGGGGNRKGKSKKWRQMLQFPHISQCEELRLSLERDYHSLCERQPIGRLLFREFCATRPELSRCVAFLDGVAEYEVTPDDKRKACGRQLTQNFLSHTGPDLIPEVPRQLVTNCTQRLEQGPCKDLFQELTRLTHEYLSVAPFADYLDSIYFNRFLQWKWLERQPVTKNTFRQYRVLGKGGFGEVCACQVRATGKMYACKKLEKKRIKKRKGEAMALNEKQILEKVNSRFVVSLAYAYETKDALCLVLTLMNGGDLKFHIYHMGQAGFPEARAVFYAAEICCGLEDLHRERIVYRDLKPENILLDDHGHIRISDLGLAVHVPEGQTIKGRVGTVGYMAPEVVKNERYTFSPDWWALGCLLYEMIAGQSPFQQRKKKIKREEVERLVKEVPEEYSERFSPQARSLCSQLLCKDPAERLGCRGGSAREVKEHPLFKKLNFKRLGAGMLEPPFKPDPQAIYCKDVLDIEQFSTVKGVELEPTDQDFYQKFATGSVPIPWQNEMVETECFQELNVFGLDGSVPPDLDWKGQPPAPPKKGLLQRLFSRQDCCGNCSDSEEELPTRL
Description: as §1
For assay [3], the target named is T1, 363 human kinases (including Aurora A/B/C) (Homo sapiens, UniProt P10398).
T1 sequence (P10398 1-606): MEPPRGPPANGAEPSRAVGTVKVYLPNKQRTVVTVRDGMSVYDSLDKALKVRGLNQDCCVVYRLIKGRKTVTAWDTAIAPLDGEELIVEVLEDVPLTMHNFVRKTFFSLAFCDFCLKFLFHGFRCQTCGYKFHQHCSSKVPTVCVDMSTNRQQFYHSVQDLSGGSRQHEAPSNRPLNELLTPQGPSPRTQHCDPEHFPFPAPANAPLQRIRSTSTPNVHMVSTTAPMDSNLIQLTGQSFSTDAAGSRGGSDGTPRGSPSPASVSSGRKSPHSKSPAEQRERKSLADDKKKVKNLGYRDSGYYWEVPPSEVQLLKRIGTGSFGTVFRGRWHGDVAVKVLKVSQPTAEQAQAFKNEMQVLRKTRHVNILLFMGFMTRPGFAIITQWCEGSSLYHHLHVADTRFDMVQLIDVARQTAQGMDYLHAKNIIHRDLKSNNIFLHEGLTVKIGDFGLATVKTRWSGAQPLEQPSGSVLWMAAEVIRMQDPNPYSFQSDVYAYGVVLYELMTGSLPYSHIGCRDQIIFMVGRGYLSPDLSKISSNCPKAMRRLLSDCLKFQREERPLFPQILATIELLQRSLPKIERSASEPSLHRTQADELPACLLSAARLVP
To be noted: ARAF, [ATP] 15 µM; for remaining activity at 0.5 µM / remaining activity at 0.1 µM: read-out: % Enzyme Activity (relative to DMSO controls); for remaining activity at 0.1 µM: 100 nM.
Description: as §1

The target in assay [4] is T2, 363 human kinases (including Aurora A/B/C) (Homo sapiens, UniProt Q9NWZ3).
T2 sequence (Q9NWZ3 1-460): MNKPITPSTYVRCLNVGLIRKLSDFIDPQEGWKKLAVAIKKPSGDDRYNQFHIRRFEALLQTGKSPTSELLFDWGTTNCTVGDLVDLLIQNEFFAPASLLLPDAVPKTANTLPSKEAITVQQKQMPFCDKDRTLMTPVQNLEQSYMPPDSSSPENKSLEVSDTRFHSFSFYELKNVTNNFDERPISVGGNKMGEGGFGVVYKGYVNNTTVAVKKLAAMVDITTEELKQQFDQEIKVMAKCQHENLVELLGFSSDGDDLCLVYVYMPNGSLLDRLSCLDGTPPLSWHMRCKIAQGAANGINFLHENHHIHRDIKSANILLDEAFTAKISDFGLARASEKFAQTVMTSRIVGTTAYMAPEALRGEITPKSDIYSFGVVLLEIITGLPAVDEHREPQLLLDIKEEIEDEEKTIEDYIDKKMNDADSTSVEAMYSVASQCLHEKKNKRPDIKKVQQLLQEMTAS
Conditions: IRAK4; for remaining activity at 0.5 µM / remaining activity at 0.1 µM: read-out: % Enzyme Activity (relative to DMSO controls); for remaining activity at 0.1 µM: 100 nM.
Description: as §1

Assay [5] concerns the target 363 human kinases (including Aurora A/B/C) (Homo sapiens, UniProt Q9Y5S2). To be noted: MRCKb/CDC42BPB; for remaining activity at 0.5 µM / remaining activity at 0.1 µM: read-out: % Enzyme Activity (relative to DMSO controls); for remaining activity at 0.1 µM: 100 nM.
Description: as §1
Assay [6] concerns the target T3, 363 human kinases (including Aurora A/B/C) (Homo sapiens, UniProt Q02156).
T3 sequence (Q02156 1-737): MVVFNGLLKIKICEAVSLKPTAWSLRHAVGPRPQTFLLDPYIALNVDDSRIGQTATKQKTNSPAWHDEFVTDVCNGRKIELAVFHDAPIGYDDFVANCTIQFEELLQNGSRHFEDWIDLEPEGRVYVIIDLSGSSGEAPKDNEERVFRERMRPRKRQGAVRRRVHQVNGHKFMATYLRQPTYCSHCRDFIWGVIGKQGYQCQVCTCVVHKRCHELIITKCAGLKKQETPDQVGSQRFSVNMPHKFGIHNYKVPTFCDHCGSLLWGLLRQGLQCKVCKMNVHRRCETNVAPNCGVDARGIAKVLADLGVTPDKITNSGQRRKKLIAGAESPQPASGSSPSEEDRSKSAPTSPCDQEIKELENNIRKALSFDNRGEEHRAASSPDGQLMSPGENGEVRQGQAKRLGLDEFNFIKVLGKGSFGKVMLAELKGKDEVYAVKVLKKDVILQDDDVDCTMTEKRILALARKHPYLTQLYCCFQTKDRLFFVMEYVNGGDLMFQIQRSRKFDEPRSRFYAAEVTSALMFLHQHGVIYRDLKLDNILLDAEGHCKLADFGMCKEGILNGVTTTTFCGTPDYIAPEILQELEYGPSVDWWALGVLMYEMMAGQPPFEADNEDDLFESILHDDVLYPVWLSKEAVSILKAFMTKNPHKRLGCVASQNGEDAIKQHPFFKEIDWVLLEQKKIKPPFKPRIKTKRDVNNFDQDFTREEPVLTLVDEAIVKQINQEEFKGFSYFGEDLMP
To be noted: PKCepsilon; for remaining activity at 0.5 µM / remaining activity at 0.1 µM: read-out: % Enzyme Activity (relative to DMSO controls); for remaining activity at 0.1 µM: 100 nM.
Description: as §1

Assay [7] concerns the target 363 human kinases (including Aurora A/B/C) (Homo sapiens, UniProt Q9Y6E0). Conditions: MST3/STK24; for remaining activity at 0.5 µM / remaining activity at 0.1 µM: read-out: % Enzyme Activity (relative to DMSO controls); for remaining activity at 0.1 µM: 100 nM.
Description: as §1
Assay [8] concerns the target 363 human kinases (including Aurora A/B/C) (Homo sapiens, UniProt Q9Y243). Conditions: AKT3, [ATP] 50 µM; for remaining activity at 0.5 µM / remaining activity at 0.1 µM: read-out: % Enzyme Activity (relative to DMSO controls); for remaining activity at 0.1 µM: 100 nM.
Description: as §1

363 human kinases (including Aurora A/B/C) (Homo sapiens, UniProt Q9Y6E0), sequence (Q9Y6E0 whole entry): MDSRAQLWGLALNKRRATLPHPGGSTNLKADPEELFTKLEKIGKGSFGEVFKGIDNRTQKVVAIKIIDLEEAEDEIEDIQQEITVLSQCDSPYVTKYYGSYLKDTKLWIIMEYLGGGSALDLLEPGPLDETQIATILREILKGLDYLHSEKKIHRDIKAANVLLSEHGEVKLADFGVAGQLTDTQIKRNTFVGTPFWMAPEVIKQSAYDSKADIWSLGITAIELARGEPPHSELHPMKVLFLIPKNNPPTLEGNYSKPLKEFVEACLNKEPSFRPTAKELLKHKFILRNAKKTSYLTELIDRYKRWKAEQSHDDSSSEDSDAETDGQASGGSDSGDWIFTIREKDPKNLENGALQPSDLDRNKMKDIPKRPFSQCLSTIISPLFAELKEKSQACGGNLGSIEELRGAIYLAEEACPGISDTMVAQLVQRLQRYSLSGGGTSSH
363 human kinases (including Aurora A/B/C) (Homo sapiens, UniProt Q9BXA6), sequence (Q9BXA6 whole entry): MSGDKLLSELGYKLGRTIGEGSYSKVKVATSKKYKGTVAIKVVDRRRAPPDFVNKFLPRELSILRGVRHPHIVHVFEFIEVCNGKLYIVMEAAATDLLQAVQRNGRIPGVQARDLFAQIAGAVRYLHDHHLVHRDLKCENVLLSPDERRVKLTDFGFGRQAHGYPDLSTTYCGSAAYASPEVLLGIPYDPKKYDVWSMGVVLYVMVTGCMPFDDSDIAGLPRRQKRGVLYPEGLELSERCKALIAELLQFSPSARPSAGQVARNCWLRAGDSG
363 human kinases (including Aurora A/B/C) (Homo sapiens, UniProt Q9Y243), sequence (Q9Y243 whole entry): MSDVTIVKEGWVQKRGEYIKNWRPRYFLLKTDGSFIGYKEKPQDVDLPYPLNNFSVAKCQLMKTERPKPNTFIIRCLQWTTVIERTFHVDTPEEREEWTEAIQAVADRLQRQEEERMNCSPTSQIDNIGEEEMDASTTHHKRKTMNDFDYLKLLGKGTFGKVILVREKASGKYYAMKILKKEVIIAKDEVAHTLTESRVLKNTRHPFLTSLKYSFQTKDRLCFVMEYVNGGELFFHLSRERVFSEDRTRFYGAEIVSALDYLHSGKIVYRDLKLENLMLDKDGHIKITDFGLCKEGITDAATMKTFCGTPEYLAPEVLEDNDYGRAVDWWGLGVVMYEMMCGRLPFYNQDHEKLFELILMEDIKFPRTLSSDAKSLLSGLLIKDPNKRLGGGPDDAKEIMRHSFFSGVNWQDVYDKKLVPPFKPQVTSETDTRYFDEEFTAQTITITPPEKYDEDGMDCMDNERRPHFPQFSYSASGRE
363 human kinases (including Aurora A/B/C) (Homo sapiens, UniProt Q9Y5S2), sequence (Q9Y5S2 whole entry): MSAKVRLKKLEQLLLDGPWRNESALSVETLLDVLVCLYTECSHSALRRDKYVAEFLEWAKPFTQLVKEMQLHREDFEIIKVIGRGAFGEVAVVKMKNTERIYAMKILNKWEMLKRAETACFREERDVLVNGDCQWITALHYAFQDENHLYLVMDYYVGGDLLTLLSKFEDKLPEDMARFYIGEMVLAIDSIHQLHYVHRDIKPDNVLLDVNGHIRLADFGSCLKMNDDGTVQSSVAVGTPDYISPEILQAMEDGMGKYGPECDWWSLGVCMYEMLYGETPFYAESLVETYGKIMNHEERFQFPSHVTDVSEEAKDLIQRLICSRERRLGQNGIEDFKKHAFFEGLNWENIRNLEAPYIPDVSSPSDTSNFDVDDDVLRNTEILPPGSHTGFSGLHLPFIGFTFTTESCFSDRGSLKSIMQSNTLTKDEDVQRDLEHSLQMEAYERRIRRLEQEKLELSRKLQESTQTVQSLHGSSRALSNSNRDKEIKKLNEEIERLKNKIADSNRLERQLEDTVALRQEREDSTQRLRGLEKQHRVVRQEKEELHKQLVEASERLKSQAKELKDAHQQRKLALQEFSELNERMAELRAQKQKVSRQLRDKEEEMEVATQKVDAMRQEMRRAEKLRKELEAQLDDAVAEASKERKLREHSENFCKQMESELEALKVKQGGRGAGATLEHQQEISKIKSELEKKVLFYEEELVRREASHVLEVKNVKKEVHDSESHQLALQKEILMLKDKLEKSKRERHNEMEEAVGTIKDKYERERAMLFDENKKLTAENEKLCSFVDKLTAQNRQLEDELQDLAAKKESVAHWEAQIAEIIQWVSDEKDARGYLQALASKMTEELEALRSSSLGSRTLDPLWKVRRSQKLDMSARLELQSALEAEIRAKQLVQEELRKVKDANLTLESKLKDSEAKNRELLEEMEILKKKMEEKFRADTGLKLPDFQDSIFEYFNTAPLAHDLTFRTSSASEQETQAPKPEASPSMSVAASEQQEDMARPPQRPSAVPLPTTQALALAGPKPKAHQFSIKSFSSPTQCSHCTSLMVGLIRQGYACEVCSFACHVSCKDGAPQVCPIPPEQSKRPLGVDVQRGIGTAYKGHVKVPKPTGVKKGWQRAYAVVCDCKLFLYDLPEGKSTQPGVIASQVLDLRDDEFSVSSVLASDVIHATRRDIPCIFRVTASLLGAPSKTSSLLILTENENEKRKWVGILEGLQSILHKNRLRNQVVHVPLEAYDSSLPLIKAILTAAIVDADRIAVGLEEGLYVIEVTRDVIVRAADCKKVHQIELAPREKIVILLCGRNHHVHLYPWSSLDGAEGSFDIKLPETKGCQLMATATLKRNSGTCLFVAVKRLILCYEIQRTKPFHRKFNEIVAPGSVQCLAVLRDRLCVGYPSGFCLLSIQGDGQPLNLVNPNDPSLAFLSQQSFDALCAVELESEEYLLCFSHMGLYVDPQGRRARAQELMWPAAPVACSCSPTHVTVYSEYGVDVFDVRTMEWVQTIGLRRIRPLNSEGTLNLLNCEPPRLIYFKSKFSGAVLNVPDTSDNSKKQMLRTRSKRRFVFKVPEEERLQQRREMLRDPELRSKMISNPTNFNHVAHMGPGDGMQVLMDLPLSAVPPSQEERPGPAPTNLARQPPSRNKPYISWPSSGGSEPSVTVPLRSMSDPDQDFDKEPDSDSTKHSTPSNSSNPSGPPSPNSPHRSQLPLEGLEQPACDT

For the molecule `O=C(c1cccc(Cl)c1F)N1CCN(Cc2cccc(Nc3nccs3)n2)CC1` [MK-8745], the “% Enzyme Activity (relative to DMSO controls)” value in assay [1] (500 nM) came to 91.73%; in assay [2] (500 nM), 98.74%; in assay [3] (500 nM), 95.99%; in assay [4] (500 nM), 79.25%; in assay [5] (500 nM) it was 102.30%; in assay [6] (500 nM), 120.37%. In addition, the “% Enzyme Activity (relative to DMSO controls)” value in assay [7] (500 nM) was found to be 84.91%; in assay [8] (500 nM), 98.52%. Further, the remaining activity at 0.5 µM in assay [1] (500 nM) turned out to be 94.5%; in assay [2] (500 nM), 100%; in assay [3] (500 nM) it was 96%; in assay [4] (500 nM), 79.4%; in assay [5] (500 nM), 102%; in assay [6] (500 nM), 120%. Also, the figures for the remaining activity at 0.5 µM in assay [7] (500 nM) and in assay [8] (500 nM) were 85.3% and 98.6%, respectively.

For `CCn1cc(-c2ccnc3[nH]c(-c4cccc(CN(C)C)c4)cc23)c(-c2ccc(NC(=O)N(C)C)cc2)n1` [GSK1070916], the remaining activity at 0.1 µM stood at 100% in assay [1]; 106% in assay [2]; 94.9% in assay [3]; 84.3% in assay [4]; 103% in assay [5]; 102% in assay [6]. Also, the remaining activity at 0.1 µM in assay [7] worked out at 85.4%; in assay [8], 94.8%.

On to `O=C(O)[C@]1(Cc2cccc(Nc3nccs3)n2)CC[C@@H](Oc2cccc(Cl)c2F)CC1` [MK-5108], for which the remaining activity at 0.1 µM in assay [1] came out at 95.1%; in assay [2], 104%; in assay [3], 96.4%; in assay [4] it was 47.6%; in assay [5], 90%; in assay [6], 111%. Further, the remaining activity at 0.1 µM in assay [7] came out at 102%; in assay [8] it was 97.4%. Moreover, the remaining activity at 0.5 µM in assay [1] (500 nM) came out at 104%; in assay [2] (500 nM) it was 101%; in assay [3] (500 nM) it was 94.4%; in assay [4] (500 nM) it was 25.6%; in assay [5] (500 nM), 104%; in assay [6] (500 nM), 101%. Besides, the remaining activity at 0.5 µM came out at 87.9% in assay [7] (500 nM) and 99.1% in assay [8] (500 nM).

Source of the values: paper PMC4685510, “A Cell Biologist’s Field Guide to Aurora Kinase Inhibitors” (Frontiers in Oncology, 2015).
